Measured values reported in patent EP2272817A1, “PAI-1 INHIBITOR” (Institute of Medicinal Molecular Design, Inc., priority 2008, dated 2009).
Read-outs that look alike come from different tables or passages of the source.

Experiments:
recombinant human PAI-1 [1] = biological target: T1, recombinant human PAI-1 (Homo sapiens, UniProt P05121); assay: Test Example 4: Human PAI-1 Inhibitory Activity (amount of PAI-1 bound to plate-coated one-chain tPA, ELISA); assay type: biochemical; parameters: purchased Molecular Innovations, Inc; conditions: human PAI-1 bound to tPA, read-out: Inhibition Rate of PAI-1 Activity (%); for inhibition at 0.3 µM: Compound Concentration 0.3µM; for inhibition at 1 µM: Compound Concentration 1µM; for inhibition at 3 µM: Compound Concentration 3µM
Method: 100 µl of tPA solution, where one-chain recombinant tPA (hereinafter reffered to as tPA; American diagnostica, inc.) had been diluted with Buffer A to acheive a concentration of 10 µg/ml, was added to each well of a 96-well plate (Nunc Maxisorp), and the plate was incubated for one night at 4 °C to be coated with tPA. Then, after suction of tPA solution from the 96-well plate, the plate was rinsed successively with Buffer A and Buffer B. To Buffer B, solutions of the compound according to the present invention dissolved with DMSO (final DMSO concentration: 0.2 %) and recombinant human PAI-1 (Molecular Innovations, Inc.) were added. The mixtures were blended so that the final concentrations would be 0.1 to 3.0 µM and 50 ng/ml respectively, and were incubated for 15 minutes on ice. These mixed solutions were added to the rinsed 96-well plate at 100 µl/well, and incubated for 60 minutes at room temperature. To prepare a calibration curve, PAI-1 solutions without the compound according to the present invention (solutions where the final concentrations being 100, 50, 25, 12.5, 6.25, 3.13, or 1.56 ng/ml PAI-1) were added at 100 µl/well, and the plate was incubated for 60 minutes at room temperature, as standard.
After incubation, the reaction mixture was removed by suction, and each well was rinsed with Wash Buffer. Next, anti-human PAI-1 monoclonal antibody (PROGEN Inc.) diluted with Buffer C to be 3.0 µg/ml was added to the 96-well plate at 100 µl/well, and the plate was incubated for 1 hour at room temperature. After rinsing each well with Wash Buffer, alkaline phosphatase-labeled goat anti-mouse IgG (H+L) (Jackson ImmunoResearch, Inc.) diluted with Buffer D to be 0.12 µg/ml was added at 100 µl/well, and the plate was incubated for 1 hour at room temperature. After rinsing each well with Wash Buffer, 1.0 mg/ml p-Nitrophenyl Phosphate (SIGMA) was added to the 96-well plate at 100 µl/well to start the reaction. After 30 to 60 minutes, 25 µl of 0.5 N NaOH was added to stop the reaction, and the absorbance was measured at 405 nm using a multiplate reader (GENios; TECAN G.M.B.H.).
Based on the calibration curve prepared from the standard wells, amounts of PAI-1 bound to tPA in the wells that had been treated with the compound according to the present invention were calculated, and the PAI-1 inhibition rates by the compounds according to the present invention were obtained by the following equation. [API-1InhibitionRate(%)] = [1-(amountofPAI-1boundtotPaonthewellbytreatmentwiththecompondaccordingtothepresentinvention)/(amountofPAI-1boundtotPAonthewellbytreatmentwithPAI-1solutionnotincledingthecompondaccordingtotheinvention(solution having the final concentration of 50 nb/ml PAI-1)] × 100 [formula] • <Composition of Buffer A> 0.1 M Tris-HCl, 150 mM NaCl, pH 7.7 • <Composition of Buffer B> 50 mM sodium phosphate, 0.1 M NaCl, 1 mM EDTA, pH 6.6 • <Composition of Buffer C> 50 mM sodium phosphate, 100 mM NaCl, pH 7.4 • <Composition of Buffer D> 0.01 M Tris-HCl, 0.25 M NaCl, pH 8.0 • <Compositon of Wash Buffer> 0.05 % Tween 20, 0.1 % BSA in Buffer A • <Composition of p-Nitrophenyl Phosphate solution> 1 M Diethanolamine 0.5 mM MgCl2, p-Nitrophenyl phosphate, pH 9.8

recombinant human PAI-1 [2] = biological target: T1, recombinant human PAI-1; assay: biochemical; conditions: for inhibition at 25 µM: read-out: Inhibition Rate of PAI-1 Activity (%), Compound Concentration 25µM
recombinant rat PAI-1 = biological target: T2, recombinant rat PAI-1 (Rattus norvegicus, UniProt P20961); assay: biochemical; conditions: read-out: Inhibition Rate of PAI-1 Activity (%)
T2 sequence (P20961 24-402): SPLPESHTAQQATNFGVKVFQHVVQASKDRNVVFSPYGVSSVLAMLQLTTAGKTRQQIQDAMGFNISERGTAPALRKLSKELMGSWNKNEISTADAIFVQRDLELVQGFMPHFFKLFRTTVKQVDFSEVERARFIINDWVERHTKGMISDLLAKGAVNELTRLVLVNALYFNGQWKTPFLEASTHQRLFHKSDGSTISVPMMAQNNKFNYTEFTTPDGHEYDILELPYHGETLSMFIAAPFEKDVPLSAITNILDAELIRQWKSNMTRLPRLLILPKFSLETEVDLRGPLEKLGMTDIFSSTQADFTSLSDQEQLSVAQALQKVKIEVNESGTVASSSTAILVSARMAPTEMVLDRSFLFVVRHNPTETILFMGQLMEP

recombinant human PAI-1 [3] = biological target: T1, recombinant human PAI-1; assay: Test Example 2: Human PAI-1 Inhibitory Activity (pH 7.4 HEPES buffer, 10 minutes incubation with two-chain tPA); assay type: biochemical; parameters: purchased Molecular Innovations, Inc; conditions: read-out: Inhibition Rate of PAI-1 Activity (%)
Method: 0.1 M HEPES, 0.1 M NaCl. 1 mM EDTA. 0.1 % Polyethylene glycol 8,000 (Hampton Research Corporation),
2 mM Dimethyldecylphoshine oxide [Apo-10] (Fluka Corporation)

[4] = read-out: Inhibition Rate of PAI-1 Activity (%), Compound Concentration 5µM
[5] = read-out: Inhibition Rate of PAI-1 Activity (%), Compound Concentration 10µM

T1 sequence (P05121 24-402): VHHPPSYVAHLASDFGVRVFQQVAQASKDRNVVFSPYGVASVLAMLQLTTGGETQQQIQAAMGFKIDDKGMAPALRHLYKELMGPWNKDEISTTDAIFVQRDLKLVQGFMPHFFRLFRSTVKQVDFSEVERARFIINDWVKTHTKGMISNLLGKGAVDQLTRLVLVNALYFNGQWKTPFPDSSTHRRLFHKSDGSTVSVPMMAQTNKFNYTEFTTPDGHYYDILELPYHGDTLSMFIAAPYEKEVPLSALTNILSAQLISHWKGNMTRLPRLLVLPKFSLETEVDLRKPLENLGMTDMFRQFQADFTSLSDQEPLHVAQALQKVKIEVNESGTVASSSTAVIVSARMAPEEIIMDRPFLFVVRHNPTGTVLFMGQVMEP

Compound	inhibition at 0.3 µM (recombinant human PAI-1 [1]) [%]	inhibition at 1 µM (recombinant human PAI-1 [1]) [%]	inhibition at 3 µM (recombinant human PAI-1 [1]) [%]	inhibition at 5 µM (recombinant human PAI-1 [2]; read-out: Inhibition Rate of PAI Activity (%), Compound Concentration 5µM) [%]	inhibition at 10 µM (recombinant human PAI-1 [2]; read-out: Inhibition Rate of PAI Activity (%), Compound Concentration 10µM) [%]	inhibition at 0.3 µM (recombinant rat PAI-1) [%]	inhibition at 1 µM (recombinant rat PAI-1) [%]	inhibition at 3 µM (recombinant rat PAI-1) [%]	inhibition at 10 µM (recombinant rat PAI-1) [%]	inhibition at 0.1 µM (recombinant human PAI-1 [3]) [%]	inhibition at 0.3 µM (recombinant human PAI-1 [3]) [%]	inhibition at 1 µM (recombinant human PAI-1 [3]) [%]	inhibition at 3 µM (recombinant human PAI-1 [3]) [%]	inhibition at 5 µM (recombinant human PAI-1 [2]; [4]) [%]	inhibition at 10 µM (recombinant human PAI-1 [2]; [5]) [%]	inhibition at 25 µM (recombinant human PAI-1 [2]) [%]
CC(C)(C)c1ccc(Oc2ccc(-c3ccc(OC(F)(F)F)cc3)cc2CCC(=O)O)cc1 [Compound 13]	7	14	41	83	93	0	14	69	> 99	5	8	36	99			
CCCCc1ccc(CN(C(=O)C(=O)O)c2ccc(-c3ccc(C(C)(C)C)cc3)cc2)cc1 [Compound 206]	0	17	40			3	29	90	88	3	13	66	> 99	78	92	89
CCCCCOc1ccc(-c2ccc(OC(F)(F)F)cc2)cc1N(CCCCc1ccccc1)C(=O)C(=O)O [Compound 226]	11	26	65			9	49	92	> 99	0	17	89	99	85	92	
CCN(CC)c1ccc(N(Cc2ccc(C(C)(C)C)cc2)C(=O)C(=O)O)c(-c2ccc(OC(F)(F)F)cc2)c1 [Compound 208]	0	6	36			0	12	82	81	10	1	36	99	89	98	
O=C(O)CCc1cc(-c2ccc(OC(F)(F)F)cc2)ccc1OCCCCc1ccccc1 [Compound 102]	0	0	83			0	12	55	93	0	7	28	94	43	74	97
CC(C)(C)c1ccc(COc2ccc(-c3ccc(OC(F)(F)F)cc3)cc2OCC(=O)O)cc1 [Compound 105]	7	4	33			0	6	74	90	2	3	44	99	38	76	> 99
CC(C)(C)c1ccc(CN(C(=O)C(=O)O)c2ccc(Oc3ccc(OC(F)(F)F)cc3)cc2C(F)(F)F)cc1 [Compound 174]	0	7	32			0	11	76	94	0	0	26	96	61	92	91
